# Source: PMC2229644 (The Journal of General Physiology, 1999)
# Columns and labels:
# [1] = target: Shaker H4 Δ(6-46) K channel (inactivation-removed, Shaker IR) (Drosophila melanogaster, UniProt P08510, DEL6-46); format: cell-based
# [2] = test system: MaxiK-channel (large conductance Ca-activated K channel); conditions: cited from earlier work
# [3] = test system: Shaker K channel, inactivation-removed; conditions: cited from earlier work
# potassium channels = conditions: cited from earlier work
# Shaker H4 Δ(6-46) K channel (inactivation-removed, Shaker IR), sequence (P08510 1-655 with tags or gaps DEL6-46): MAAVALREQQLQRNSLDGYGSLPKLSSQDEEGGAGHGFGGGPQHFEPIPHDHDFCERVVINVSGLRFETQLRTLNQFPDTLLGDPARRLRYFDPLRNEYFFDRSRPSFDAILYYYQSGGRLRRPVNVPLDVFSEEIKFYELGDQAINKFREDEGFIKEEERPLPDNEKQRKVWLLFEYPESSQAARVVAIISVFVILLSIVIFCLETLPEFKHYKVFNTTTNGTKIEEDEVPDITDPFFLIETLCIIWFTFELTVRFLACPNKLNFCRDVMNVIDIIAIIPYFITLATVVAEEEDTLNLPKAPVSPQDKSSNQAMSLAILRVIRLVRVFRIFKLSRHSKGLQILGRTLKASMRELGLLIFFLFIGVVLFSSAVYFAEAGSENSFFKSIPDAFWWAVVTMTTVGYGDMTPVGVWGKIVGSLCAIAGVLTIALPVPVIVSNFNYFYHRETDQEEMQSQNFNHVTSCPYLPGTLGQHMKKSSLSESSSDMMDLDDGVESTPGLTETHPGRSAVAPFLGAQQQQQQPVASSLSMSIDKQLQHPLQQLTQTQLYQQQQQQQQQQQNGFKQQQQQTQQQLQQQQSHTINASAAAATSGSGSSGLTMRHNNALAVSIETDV
Substance,effect on apparent association rate of κ-PVIIA [1],effect on dissociation rate of κ-PVIIA [1],underestimation of κ-PVIIA k on by 1 mM TEA^+ [1],effect of TEA^+ on CTX association and dissociation rates [2],effect of external TEA^+ on extent of κ-PVIIA blockade [3],effective valence zδ in absence of internally present permeant cations [2],"association rate constant, k on (potassium channels)"
tetraethylammonium [TEA^+],decreases the apparent association rate,little effect on the dissociation rate,~10%,only reduces the association rate of CTX,reduces the extent of the blockade,–,–
charybdotoxin [CTX],–,–,–,–,–,zδ vanishes,6.1e+07 M⁻¹ s⁻¹
